Source: US10538555B2, “Macrocyclic inhibitors of the PD-1/PD-L1 and CD80(B7-1)/PD-L1 protein/protein interactions” (BRISTOL-MYERS SQUIBB COMPANY, priority 2014, dated 2020)
Where a SMILES comes first, the peptide text is derived from it. Bridges are numbered along the chain shown (N, C = ends). [ ]: non-standard residue; d: D form. ξ: configuration not given here. Trp(1-CH2COOH) = N[C@@H](Cc1cn(CC(=O)O)c2ccccc12)C(=O)O; Trp(5-OH) = N[C@@H](Cc1c[nH]c2ccc(O)cc12)C(=O)O; d(cisHyp) = O=C(O)[C@H]1C[C@@H](O)CN1; Bta = N[C@@H](Cc1csc2ccccc12)C(=O)O; Hyp = O=C(O)[C@@H]1C[C@@H](O)CN1; dHyp = O=C(O)[C@H]1C[C@H](O)CN1; NMeNle = CCCC[C@H](NC)C(=O)O; NMeA = CN[C@@H](C)C(=O)O; Dab = NCC[C@H](N)C(=O)O; Dap = NC[C@H](N)C(=O)O; ξC = NC(CS)C(=O)O

Target: T1, Human PD-L1/PD-1 (Homo sapiens, UniProt Q9NZQ7)
T1 construct: TVMV protease cleavage site (C); made in house; host or cells: HEK293T cells
T1 sequence (Q9NZQ7 with tags, fused parts or gaps): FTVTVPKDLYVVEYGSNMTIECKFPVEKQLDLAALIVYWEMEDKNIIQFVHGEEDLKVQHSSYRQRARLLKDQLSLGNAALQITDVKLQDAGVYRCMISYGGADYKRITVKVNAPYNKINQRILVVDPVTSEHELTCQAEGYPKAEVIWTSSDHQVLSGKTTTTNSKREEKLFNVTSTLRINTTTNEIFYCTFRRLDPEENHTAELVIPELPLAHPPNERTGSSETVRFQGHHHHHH
Assay: HTRF Human PD-L1/PD-1 binding assay (PD-1-Ig/PD-L1-His)
Conditions: PD-L1-His 10 nM, PD-1-Ig 20 nM; class symbol; read-out: HTRF Human PD-L1/PD-1 Binding Assay IC50 Range
Procedure, shortened: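 Soluble HEK293T-expressed proteins: hPD-L1-His 10 nM, hPD-1-Ig 20 nM final. Cpd + PD-L1 15 min, + PD-1 15 min, + Eu anti-Ig 1 nM/APC anti-His 20 nM 30 min. Buffer dPBS, 0.1% BSA, 0.05% Tween-20. TR-FRET 665/620.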

| IC50 [nM] | SMILES |
| --- | --- |
| 1 to 9.9 | CCCC[C@H]1C(=O)N(C)[C@@H](CCCC)C(=O)N[C@@H](CCC(=O)O)C(=O)N[C@H](C(=O)NCC(N)=O)CSCC(=O)N[C@@H](Cc2ccc(OC)cc2)C(=O)N(C)[C@@H](C)C(=O)N[C@@H](CC(=O)O)C(=O)N2CCC[C@H]2C(=O)N[C@@H](Cc2c[nH]cn2)C(=O)N[C@@H](CCCCN)C(=O)N2C[C@H](O)C[C@H]2C(=O)N[C@@H](Cc2c[nH]c3ccccc23)C(=O)N[C@@H](CCN)C(=O)N[C@@H](Cc2cn(CC(=O)O)c3ccccc23)C(=O)N1C [Example 7147] ({CH2CO}-Y(Me)[NMeA]DPHK[Hyp]W[Dab][Trp(1-CH2COOH)][NMeNle][NMeNle]ECG-NH2; thioether N-14) |
| 1 to 9.9 | CCCC[C@H]1C(=O)N(C)[C@@H](CCCC)C(=O)N[C@@H](CCC(=O)O)C(=O)N[C@H](C(=O)NCC(N)=O)CSCC(=O)N[C@@H](Cc2ccc(OC)cc2)C(=O)N(C)[C@@H](C)C(=O)N[C@@H](CC(=O)O)C(=O)N2CCC[C@H]2C(=O)N[C@@H](CN)C(=O)N[C@@H](CCCCN)C(=O)N2C[C@H](O)C[C@H]2C(=O)N[C@@H](Cc2c[nH]c3ccccc23)C(=O)N[C@@H](CCN)C(=O)N[C@@H](Cc2cn(CC(=O)O)c3ccccc23)C(=O)N1C [Example 7148] ({CH2CO}-Y(Me)[NMeA]DP[Dap]K[Hyp]W[Dab][Trp(1-CH2COOH)][NMeNle][NMeNle]ECG-NH2; thioether N-14) |
| 1 to 9.9 | CCCC[C@H]1C(=O)N(C)[C@@H](CCCC)C(=O)N[C@@H](CC(C)C)C(=O)N[C@H](C(=O)NCC(N)=O)CSCC(=O)N[C@@H](Cc2ccc(OC)cc2)C(=O)N(C)[C@@H](C)C(=O)N[C@@H](CC(N)=O)C(=O)N2CCC[C@@H]2C(=O)N[C@@H](CN)C(=O)N[C@@H](C(C)C)C(=O)N2C[C@@H](O)C[C@@H]2C(=O)N[C@@H](Cc2c[nH]c3ccccc23)C(=O)N[C@@H](CCN)C(=O)N[C@@H](Cc2cn(CC(=O)O)c3ccccc23)C(=O)N1C [Example 7151] ({CH2CO}-Y(Me)[NMeA]N[dP][Dap]V[dHyp]W[Dab][Trp(1-CH2COOH)][NMeNle][NMeNle]LCG-NH2; thioether N-14) |
| 10 to 99.9 | CCCC[C@H]1C(=O)N(C)[C@@H](CCCC)C(=O)N[C@@H](CCC(=O)O)C(=O)N[C@H](C(=O)NCC(N)=O)CSCC(=O)N[C@@H](Cc2ccc(OC)cc2)C(=O)N(C)[C@@H](C)C(=O)N[C@@H](CC(=O)O)C(=O)N2CCC[C@H]2C(=O)N[C@@H](CN)C(=O)N[C@@H](CCC(=O)O)C(=O)N2C[C@H](O)C[C@H]2C(=O)N[C@@H](Cc2c[nH]c3ccccc23)C(=O)N[C@@H](CCN)C(=O)N[C@@H](Cc2c[nH]c3ccc(O)cc23)C(=O)N1C [Example 7152] ({CH2CO}-Y(Me)[NMeA]DP[Dap]E[Hyp]W[Dab][Trp(5-OH)][NMeNle][NMeNle]ECG-NH2; thioether N-14) |
| 1 to 9.9 | CCCC[C@H]1C(=O)N(C)[C@@H](CCCC)C(=O)N[C@@H](CC(C)C)C(=O)N[C@H](C(=O)NCC(N)=O)CSCC(=O)N[C@@H](Cc2ccc(OC)cc2)C(=O)N(C)[C@@H](C)C(=O)N[C@@H](CC(=O)O)C(=O)N2CCC[C@H]2C(=O)N[C@@H](Cc2cnc[nH]2)C(=O)N[C@@H](CCCCN)C(=O)N2C[C@H](O)C[C@@H]2C(=O)N[C@@H](Cc2c[nH]c3ccccc23)C(=O)N[C@@H](CCCCN)C(=O)N[C@@H](Cc2cn(CC(=O)O)c3ccccc23)C(=O)N1C [Example 7153] ({CH2CO}-Y(Me)[NMeA]DPHK[d(cisHyp)]WK[Trp(1-CH2COOH)][NMeNle][NMeNle]LCG-NH2; thioether N-14) |
| 10 to 99.9 | CCCC[C@H]1C(=O)N(C)[C@@H](CCCC)C(=O)N[C@@H](CC(C)C)C(=O)N[C@H](C(=O)NCC(N)=O)CSCC(=O)N[C@@H](Cc2ccc(OC)cc2)C(=O)N(C)[C@@H](C)C(=O)N[C@@H](CC(=O)O)C(=O)N2CCC[C@H]2C(=O)N[C@@H](Cc2cnc[nH]2)C(=O)N[C@@H](CCCCN)C(=O)N2C[C@H](O)C[C@@H]2C(=O)N[C@@H](Cc2c[nH]c3ccccc23)C(=O)N[C@@H](CCCCN)C(=O)N[C@@H](Cc2cn(CC(=O)O)c3ccccc23)C(=O)N1C [Example 7154] ({CH2CO}-Y(Me)[NMeA]DPHK[d(cisHyp)]WK[Trp(1-CH2COOH)][NMeNle][NMeNle]LCG-NH2; thioether N-14) |
| 10 to 99.9 | CCCC[C@H]1C(=O)N(C)[C@@H](C)C(=O)N[C@@H](CCCNC(=N)N)C(=O)NC(C(=O)NCC(N)=O)CSCC(=O)N[C@@H](Cc2ccc(O)cc2)C(=O)N(C)[C@@H](C)C(=O)N[C@@H](CC(N)=O)C(=O)N2CCC[C@H]2C(=O)N[C@@H](CO)C(=O)N[C@H](CC(C)C)C(=O)N2C[C@H](O)C[C@H]2C(=O)N[C@@H](Cc2c[nH]c3ccccc23)C(=O)N[C@@H](CO)C(=O)N[C@@H](Cc2c[nH]c3ccccc23)C(=O)N1C (stereo partly drawn) [Example 9115] ({CH2CO}-Y[NMeA]NPS[dL][Hyp]WSW[NMeNle][NMeA]R[ξC]G-NH2; thioether N-14) |
| 10 to 99.9 | CCCC[C@H]1C(=O)N(C)[C@@H](C)C(=O)N[C@@H](CCCNC(=N)N)C(=O)NC(C(=O)NCC(N)=O)CSCC(=O)N[C@@H](Cc2ccc(O)cc2)C(=O)N(C)[C@@H](C)C(=O)N[C@@H](CC(N)=O)C(=O)N2CCC[C@H]2C(=O)N[C@@H](CO)C(=O)N[C@H](CC(C)C)C(=O)N2C[C@H](O)C[C@H]2C(=O)N[C@@H](Cc2c[nH]c3ccccc23)C(=O)N[C@@H](CO)C(=O)N[C@@H](Cc2csc3ccccc23)C(=O)N1C (stereo partly drawn) [Example 9116] ({CH2CO}-Y[NMeA]NPS[dL][Hyp]WS[Bta][NMeNle][NMeA]R[ξC]G-NH2; thioether N-14) |
| 10 to 99.9 | CCCC[C@H]1C(=O)N(C)[C@@H](C)C(=O)N[C@@H](CCCNC(=N)N)C(=O)NC(C(=O)NCC(N)=O)CSCC(=O)N[C@@H](Cc2ccc(O)cc2)C(=O)N(C)[C@@H](C)C(=O)N[C@@H](CC(N)=O)C(=O)N2CCC[C@H]2C(=O)N[C@@H](Cc2cnc[nH]2)C(=O)N[C@H](CO)C(=O)N2CCC[C@H]2C(=O)N[C@@H](Cc2c[nH]c3ccccc23)C(=O)N[C@@H](CO)C(=O)N[C@@H](Cc2c[nH]c3ccccc23)C(=O)N1C (stereo partly drawn) [Example 9117] ({CH2CO}-Y[NMeA]NPH[dS]PWSW[NMeNle][NMeA]R[ξC]G-NH2; thioether N-14) |
| 10 to 99.9 | CCCC[C@H]1C(=O)N(C)[C@@H](C)C(=O)N[C@@H](CCCNC(=N)N)C(=O)NC(C(=O)NCC(N)=O)CSCC(=O)N[C@@H](Cc2ccc(O)cc2)C(=O)N(C)[C@@H](C)C(=O)N[C@@H](CC(N)=O)C(=O)N2CCC[C@H]2C(=O)N[C@@H](Cc2cnc[nH]2)C(=O)N[C@H](CO)C(=O)N2C[C@H](O)C[C@H]2C(=O)N[C@@H](Cc2c[nH]c3ccccc23)C(=O)N[C@@H](CO)C(=O)N[C@@H](Cc2c[nH]c3ccccc23)C(=O)N1C (stereo partly drawn) [Example 9119] ({CH2CO}-Y[NMeA]NPH[dS][Hyp]WSW[NMeNle][NMeA]R[ξC]G-NH2; thioether N-14) |
| 10 to 99.9 | CCCC[C@H]1C(=O)N(C)[C@@H](C)C(=O)N[C@@H](CCCNC(=N)N)C(=O)NC(C(=O)NCC(N)=O)CSCC(=O)N[C@@H](Cc2ccc(O)cc2)C(=O)N(C)[C@@H](C)C(=O)N[C@@H](CC(N)=O)C(=O)N2CCC[C@H]2C(=O)N[C@@H](Cc2cnc[nH]2)C(=O)N[C@H](CO)C(=O)N2C[C@H](O)C[C@H]2C(=O)N[C@@H](Cc2c[nH]c3ccccc23)C(=O)N[C@@H](CO)C(=O)N[C@@H](Cc2csc3ccccc23)C(=O)N1C (stereo partly drawn) [Example 9120] ({CH2CO}-Y[NMeA]NPH[dS][Hyp]WS[Bta][NMeNle][NMeA]R[ξC]G-NH2; thioether N-14) |
| 10 to 99.9 | CCCC[C@H]1C(=O)N(C)[C@@H](C)C(=O)N[C@@H](CCCNC(=N)N)C(=O)NC(C(=O)N[C@@H](CO)C(N)=O)CSCC(=O)N[C@@H](Cc2ccc(O)cc2)C(=O)N(C)[C@@H](C)C(=O)N[C@@H](CC(N)=O)C(=O)N2CCC[C@H]2C(=O)N[C@@H](CO)C(=O)N[C@H](CC(C)C)C(=O)N2CCC[C@H]2C(=O)N[C@@H](Cc2c[nH]c3ccccc23)C(=O)N[C@@H](CO)C(=O)N[C@@H](Cc2c[nH]c3ccccc23)C(=O)N1C (stereo partly drawn) [Example 9121] ({CH2CO}-Y[NMeA]NPS[dL]PWSW[NMeNle][NMeA]R[ξC]S-NH2; thioether N-14) |
| 10 to 99.9 | CCCC[C@H]1C(=O)N(C)[C@@H](C)C(=O)N[C@@H](CCCNC(=N)N)C(=O)NC(C(=O)N[C@@H](CO)C(N)=O)CSCC(=O)N[C@@H](Cc2ccc(O)cc2)C(=O)N(C)[C@@H](C)C(=O)N[C@@H](CC(N)=O)C(=O)N2CCC[C@H]2C(=O)N[C@@H](CO)C(=O)N[C@H](CC(C)C)C(=O)N2CCC[C@H]2C(=O)N[C@@H](Cc2c[nH]c3ccccc23)C(=O)N[C@@H](CO)C(=O)N[C@@H](Cc2csc3ccccc23)C(=O)N1C (stereo partly drawn) [Example 9122] ({CH2CO}-Y[NMeA]NPS[dL]PWS[Bta][NMeNle][NMeA]R[ξC]S-NH2; thioether N-14) |
| 1 to 9.9 | CCCC[C@H]1C(=O)N(C)[C@@H](C)C(=O)N[C@@H](CCCNC(=N)N)C(=O)NC(C(=O)N[C@@H](CO)C(N)=O)CSCC(=O)N[C@@H](Cc2ccc(O)cc2)C(=O)N(C)[C@@H](C)C(=O)N[C@@H](CC(N)=O)C(=O)N2CCC[C@H]2C(=O)N[C@@H](CO)C(=O)N[C@H](CC(C)C)C(=O)N2C[C@H](O)C[C@H]2C(=O)N[C@@H](Cc2c[nH]c3ccccc23)C(=O)N[C@@H](CO)C(=O)N[C@@H](Cc2c[nH]c3ccccc23)C(=O)N1C (stereo partly drawn) [Example 9123] ({CH2CO}-Y[NMeA]NPS[dL][Hyp]WSW[NMeNle][NMeA]R[ξC]S-NH2; thioether N-14) |

Same assay, conditions: PD-L1-His 10 nM, PD-1-Ig 20 nM; read-out: HTRF Human PD-L1/PD-1 Binding Assay IC50

| IC50 [nM] | SMILES |
| --- | --- |
| 27 | CCCC[C@H]1C(=O)N(C)[C@@H](C)C(=O)N[C@@H](CCCNC(=N)N)C(=O)NC(C(=O)NCC(N)=O)CSCC(=O)N[C@@H](Cc2ccc(O)cc2)C(=O)N(C)[C@@H](C)C(=O)N[C@@H](CC(N)=O)C(=O)N2CCC[C@H]2C(=O)N[C@@H](Cc2cnc[nH]2)C(=O)N[C@H](CO)C(=O)N2CCC[C@H]2C(=O)N[C@@H](Cc2c[nH]c3ccccc23)C(=O)N[C@@H](CO)C(=O)N[C@@H](Cc2csc3ccccc23)C(=O)N1C (stereo partly drawn) [Example 9118] ({CH2CO}-Y[NMeA]NPH[dS]PWS[Bta][NMeNle][NMeA]R[ξC]G-NH2; thioether N-14) |
